Laboratory results as given in patent publication US12428406B2 (PMV Pharmaceuticals, Inc., priority 2019, dated 2025).

Target: T1, p53 Y220C (Homo sapiens, UniProt P04637, Y220C)
T1 construct: The recombinant protein was a truncation mutant containing only amino acids 94-312 of p53; made in house; host or cells: E. coli
Test: In vitro DNA binding activity assay (HTRF / TR-FRET): stabilization of p53 Y220C and increase of its DNA binding activity
Assay type: biochemical
Conditions: recombinant His-tagged p53 Y220C DNA binding domain (aa 94-312), biotin-labeled consensus DNA, incubated at 27° C. or 29° C. for 60 min
Method in brief: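 Test compounds, diluted 3-fold in DMSO from 4.5 mM stocks, were incubated with bacterially expressed His-tagged p53 Y220C at room temperature for 15 min, and after a further step for 20 min. DNA binding was detected by time-resolved FRET between APC and europium labels. SC150 marks the concentration increasing binding by 50%.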

T1 sequence (P04637 94-312, change not shown): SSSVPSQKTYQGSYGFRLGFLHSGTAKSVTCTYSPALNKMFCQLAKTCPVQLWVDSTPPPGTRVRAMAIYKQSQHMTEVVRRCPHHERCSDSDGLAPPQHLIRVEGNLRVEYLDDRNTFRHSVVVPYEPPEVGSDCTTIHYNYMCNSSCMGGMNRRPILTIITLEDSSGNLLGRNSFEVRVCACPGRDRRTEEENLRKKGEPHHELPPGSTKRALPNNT

| SMILES | SC150 (concentration of the compound required to increase the DNA binding activity by 50%) |
| --- | --- |
| COCCN(CCOC)[C@H]1CC[C@H](Nc2cccc3c2cc(C#CCNc2ccc(S(N)(=O)=O)cc2OC)n3CC(F)(F)F)CC1 [Compound 61A, 3-methoxy-4-{[3-(4-{[(1R,4R)-4-[bis(2-methoxyethyl)amino]cyclo-hexyl]amino}-1-(2,2,2-trifluoroethyl)-1H-indol-2-yl)prop-2-yn-1-yl]amino}benzene-1-sulfonamide] | + (+ = 0 μM ≤ SC150 < 0.05 μM) |
| COc1cc(S(C)(=O)=O)ccc1NCC#Cc1cc2c(NC(=O)N[C@H]3CC[C@H](N(C)C)CC3)cccc2n1CC(F)(F)F [Compound 12A, 3-(2-{3-[(4-methanesulfonyl-2-methoxyphenyl)amino]prop-1-yn-1-yl}-1-(2,2,2-trifluoroethyl)-1H-indol-4-yl)-1-[(1R,4R)-4-(dimethylamino)cyclohexyl]urea] | + (+ = 0 μM ≤ SC150 < 0.05 μM) |
| CCN(CC)CCNC(=O)c1ccc(NCC#Cc2cc3c(N[C@@H]4CCN(C)C[C@@H]4F)cccc3n2CC(F)(F)F)c(OC)c1 [Compound 946A] | + (+ = 0 μM ≤ SC150 < 0.05 μM) |
| COc1cc(S(N)(=O)=O)ccc1NCC#Cc1cc2c(N[C@H]3CC[C@@H](N4CC5(COC5)C4)CC3)cccc2n1CC(F)(F)F [Compound 204A, 3-methoxy-4-{[3-(4-{[(1R,4R)-4-{2-oxa-6-azaspiro[3.3]heptan-6-yl}cyclohexyl]amino}-1-(2,2,2-trifluoroethyl)-1H-indol-2-yl)prop-2-yn-1-yl]amino}benzene-1-sulfonamide] | + (+ = 0 μM ≤ SC150 < 0.05 μM) |
| COc1cc(NC2CCOCC2)c2cc(C#CCNc3ccc(S(N)(=O)=O)cc3OC)n(CC(F)(F)F)c2c1 [Compound 1013A, 3-methoxy-4-[(3-{6-methoxy-4-[(oxan-4-yl)amino]-1-(2,2,2-trifluoroethyl)-1H-indol-2-yl}prop-2-yn-1-yl)amino]benzene-1-sulfonamide] | +++ (+++ = 0.1 μM ≤ SC150 < 0.2 μM) |
| CS(=O)(=O)c1ccc(NCC#Cc2cc3c(N[C@H]4CC[C@H](N5CC6(CCOCC6)C5)CC4)cccc3n2CC(F)(F)F)c(OCC(=O)O)c1 [Compound 311A, 2-(2-((3-(4-(((1R,4R)-4-(7-oxa-2-azaspiro[3.5]nonan-2-yl)cyclohexyl)amino)-1-(2,2,2-trifluoroethyl)-1H-indol-2-yl)prop-2-yn-1-yl)amino)-5-(methylsulfonyl)phenoxy)acetic acid] | ++ (++ = 0.05 μM ≤ SC150 < 0.1 μM) |
| COc1cc(S(=O)(=O)N2CCOCC2)ccc1NCC#Cc1cc2c(NC3CCN(CC(O)CO)CC3)cccc2n1CC(F)(F)F (stereo not shown) [Compound 582A, 3-(4-{[2-(3-{[2-methoxy-4-(morpholine-4-sulfonyl)phenyl]amino}prop-1-yn-1-yl)-1-(2,2,2-trifluoroethyl)-1H-indol-4-yl]amino}piperidin-1-yl)propane-1,2-diol] | + (+ = 0 μM ≤ SC150 < 0.05 μM) |
| COc1cc(C(=O)O)ccc1NCC#Cc1cc2c(NC3CCN(C4CCOCC4)CC3)cccc2n1CC(F)(F)F [Compound 724A, 3-methoxy-4-{1[3-(4-{[1-(oxan-4-yl)piperidin-4-yl]amino}-1-(2,2,2-trifluoroethyl)-1H-indol-2-yl)prop-2-yn-1-yl]amino}benzoic acid] | + (+ = 0 μM ≤ SC150 < 0.05 μM) |
| COc1cc(S(C)(=O)=O)ccc1NCC#Cc1cc2c(NC(C)=O)cccc2n1CC(F)(F)F [Compound 5A, N-(2-{3-[(4-methanesulfonyl-2-methoxyphenyl)amino]prop-1-yn-1-yl}-1-(2,2,2-trifluoroethyl)-1H-indol-4-yl)acetamide] | ++++ (++++ = 0.2 μM ≤ SC150 < 1 μM) |
| COc1cc(S(N)(=O)=O)ccc1NCC#Cc1cc2c(N[C@@H]3CCN(C)C[C@@H]3F)cccc2n1CC(F)(F)F [Compound 791A, 4-{[3-(4-{[(3S,4R)-3-fluoro-1-methylpiperidin-4-yl]amino}-1-(2,2,2-trifluoroethyl)-1H-indol-2-yl)prop-2-yn-1-yl]amino}-3-methoxybenzene-1-sulfonamide] | + (+ = 0 μM ≤ SC150 < 0.05 μM) |
| CNC(=O)c1ccc(NCC#Cc2cc3c(N[C@H]4CC[C@H](N5CCC6(CC5)COC6)CC4)cccc3n2CC(F)(F)F)c(OC)c1 [Compound 375A, 3-methoxy-N-methyl-4-{[3-(4-{[(1R,4R)-4-{2-oxa-7-azaspiro[3.5]nonan-7-yl}cyclohexyl]amino}-1-(2,2,2-trifluoroethyl)-1H-indol-2-yl)prop-2-yn-1-yl]amino}benzamide] | + (+ = 0 μM ≤ SC150 < 0.05 μM) |
| NS(=O)(=O)c1ccc(NCC#Cc2cc3c(N[C@H]4CC[C@H](N5CCC6(CC5)COC6)CC4)cccc3n2CC(F)(F)F)c(OCF)c1 [Compound 381A, 3-(fluoromethoxy)-4-{[3-(4-{[(1R,4R)-4-{2-oxa-7-azaspiro[3.5]nonan-7-yl}cyclohexyl]amino}-1-(2,2,2-trifluoroethyl)-1H-indol-2-yl)prop-2-yn-1-yl]amino}benzene-1-sulfonamide] | + (+ = 0 μM ≤ SC150 < 0.05 μM) |
| COc1cc(S(C)(=O)=O)ccc1NCC#Cc1cc2c(NC3CCC(=O)CC3)cccc2n1CC(F)(F)F [Compound 66A, 4-[(2-{3-[(4-methane-sulfonyl-2-methoxy-phenyl)amino]prop-1-yn-1-yl}-1-(2,2,2-trifluoroethyl)-1H-indol-4-yl)amino]cyclo-hexan-1-one] | + (+ = 0 μM ≤ SC150 < 0.05 μM) |
| COc1cc(S(C)(=O)=O)ccc1NCC#Cc1cc2c(N[C@H]3CC[C@H](N4CCC(S(C)(=O)=O)CC4)CC3)cccc2n1CC(F)(F)F [Compound 442A, 2-{3-[(4-methane-sulfonyl-2-methoxy-phenyl)amino]prop-1-yn-1-yl}-N-[(1R,4R)-4-(4-methanesulfonylpiperidin-1-yl)cyclohexyl]-1-(2,2,2-trifluoroethyl)-1H-indol-4-amine] | + (+ = 0 μM ≤ SC150 < 0.05 μM) |
| COCC(O)CN1CCC(Nc2cccc3c2cc(C#CCNc2ccc(S(C)(=O)=O)cc2OC)n3CCCl)CC1 (stereo not shown) [Compound 700A, 1-(4-{[1-(2-chloroethyl)-2-{3-[(4-methanesulfonyl-2-methoxyphenyl)amino]prop-1-yn-1-yl}-1H-indol-4-yl]amino}piperidin-1-yl)-3-methoxypropan-2-ol] | + (+ = 0 μM ≤ SC150 < 0.05 μM) |
| CCC(=O)Oc1cc(S(C)(=O)=O)ccc1NCC#Cc1cc2c(NC3CCOCC3)cccc2n1CC(F)(F)F [Compound 1014A, 5-methanesulfonyl-2-[(3-{4-[(oxan-4-yl)amino]-1-(2,2,2-trifluoroethyl)-1H-indol-2-yl}prop-2-yn-1-yl)amino]phenyl propanoate] | + (+ = 0 μM ≤ SC150 < 0.05 μM) |
| COc1cc(C(C)(C)C#N)ncc1NCC#Cc1cc2c(NC3CCN(C)CC3)cccc2n1CC(F)(F)F [Compound 468A, 2-{4-methoxy-5-[(3-{4-[(1-methylpiperidin-4-yl)amino]-1-(2,2,2-trifluoroethyl)-1H-indol-2-yl}prop-2-yn-1-yl)amino]pyridin-2-yl}-2-methylpropanenitrile] | + (+ = 0 μM ≤ SC150 < 0.05 μM) |
| COCC(O)CN1CCC(Nc2cccc3c2cc(C#CCNC(=O)c2ccccc2)n3CC(F)(F)F)C1 (stereo not shown) [Compound 456A, N-[3-(4-{[1-(2-hydroxy-3-methoxypropyl)pyrrolidin-3-yl]amino}-1-(2,2,2-trifluoroethyl)-1H-indol-2-yl)prop-2-yn-1-yl]benzamide] | ++++ (++++ = 0.2 μM ≤ SC150 < 1 μM) |
| CNC(=O)c1ccc(NCC#Cc2cc3c(NC4CCN(C)CC4)cccc3n2CC(F)(F)F)c(OC)c1 [Compound 482A, 3-methoxy-N-methyl-4-[(3-{4-[(1-methylpiperidin-4-yl)amino]-1-(2,2,2-trifluoroethyl)-1H-indol-2-yl}prop-2-yn-1-yl)amino]benzamide] | + (+ = 0 μM ≤ SC150 < 0.05 μM) |
| CS(=O)(=O)c1ccc(OCC#Cc2cc3c(N[C@H]4CC[C@@H](N5CC6(COC6)C5)CC4)cccc3n2CC(F)(F)F)c(N)c1 [Compound 233A, 2-[3-(2-amino-4-methanesulfonyl-phenoxy)prop-1-yn-1-yl]-N-[(1S,4S)-4-{2-oxa-6-azaspiro[3.3]heptan-6-yl}cyclohexyl]-1-(2,2,2-trifluoroethyl)-1H-indol-4-amine] | ++ (++ = 0.05 μM ≤ SC150 < 0.1 μM) |
| COCCN(C)[C@H]1CC[C@@H](Nc2cccc3c2cc(C#CCNc2ccc(S(C)(=O)=O)cc2OC)n3CC(F)(F)F)CC1 [Compound 56A, (1S,4S)-N^4-(2-{3-[(4-methanesulfonyl-2-methoxyphenyl)amino]prop-1-yn-1-yl}-1-(2,2,2-trifluoroethyl)-1H-indol-4-yl)-N^1-(2-methoxyethyl)-N^1-methylcyclohexane-1,4-diamine] | + (+ = 0 μM ≤ SC150 < 0.05 μM) |
| COCC(O)CN1CC[C@H](Nc2cccc3c2cc(C#CCNc2ccc(S(C)(=O)=O)cc2OC)n3CC(F)(F)F)[C@@H](C)C1 (mixture of isomers) [Compound 702A, rac-1-[(3R,4S)-4-[(2-{3-[(4-methanesulfonyl-2-methoxyphenyl)amino]prop-1-yn-1-yl}-1-(2,2,2-trifluoroethyl)-1H-indol-4-yl)amino]-3-methylpiperidin-1-yl]-3-methoxypropan-2-ol] | + (+ = 0 μM ≤ SC150 < 0.05 μM) |
